Measurements: PubChem BioAssay AID463199 (Broad Institute, 2010)
Activity calls are given as the source filed them.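 Rule for the calls: active = AC50, the dose giving half-maximal effect, exceeds a fixed cutoff for a compound that rescues yeast growth under heat; inactive = the rest, inconclusive results apart.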

tested on: S. cerevisiae Burl-1 ts mutant growth, BacTiter-Glo, 38.5C 24 h; assay: growth induction of Burl-1 ts yeast mutant, dose response, counter-screen for SUMOylation pathway inhibitor project, whole organism, S. cerevisiae, luminescence (AID 463199)

Compound	AC50
CC[n+]1c(/C=C/N(C)c2ccccc2)n(-c2ccccc2)c2ccc(-c3nc4ccccc4s3)cc21	> 42 µM (inactive)
CCS(=O)(=O)c1nc(S(=O)(=O)c2ccc(Cl)cc2)c(N2CCc3ccccc3C2)s1	> 42 µM (inactive)
C/C(=N\NC(=O)Cc1csc(N2CCOCC2)n1)c1ccccc1	> 42 µM (inactive)
CC(C)(C)NC(=S)NCc1cccnc1	> 42 µM (inactive)
COC(=O)c1ccccc1NC(=O)c1cnn2c(C)cc(C)nc12	> 42 µM (inactive)
CCCc1cc(=S)n2c([nH]c3ccccc32)c1C#N	> 42 µM (inactive)
CCCCSCCCNC(=O)Nc1cccc(OC)c1	> 42 µM (inactive)
Cc1cc(F)ccc1S(=O)(=O)Nc1ccccc1C(=O)Nc1ccc2[nH]c(=O)[nH]c2c1	> 42 µM (inactive)
O=C(O)CC(NC(=O)c1ccc2c(c1)OCO2)c1cccc([N+](=O)[O-])c1 (stereo unspecified)	> 42 µM (inactive)
Cc1ccc(NS(=O)(=O)c2cc(C(=O)Nc3cccc([N+](=O)[O-])c3)ccc2C)cc1	> 42 µM (inactive)
CCOC(=O)CS(=O)(=O)c1ccc2ccccc2c1	> 42 µM (inactive)
Oc1c(Br)cc(Br)cc1C=Nc1cccnc1	> 42 µM (inactive)
O=C(CCSc1nnc(-c2ccncc2)o1)Nc1ccc(Cl)cc1	> 42 µM (inactive)
Cc1ccc(O)c(C)c1	> 42 µM (inactive)
Cc1ccc(C(=O)Nc2nc(-c3ccc(F)cc3)cs2)o1	> 42 µM (inactive)
Cc1nn(-c2ccccc2)c(N)c1N=Nc1cccc(S(=O)(=O)N2CCOCC2)c1	> 42 µM (inactive)
Cc1nc(CC(=O)N/N=C/c2ccc(OCC(=O)O)cc2)cs1	> 42 µM (inactive)
CCc1c(C)c2ccc(OCC(=O)OC(C)C)c(C)c2oc1=O	> 42 µM (inactive)
Cc1ccc(CNC(=O)c2ccc(N3CCC4(CC3)CC(c3ccccc3)=NO4)c(NC(=O)c3cccc(C)c3)c2)cc1	> 42 µM (inactive)
CCNc1nc(NCC)nc(SCCOC(=O)Nc2ccccc2)n1	> 42 µM (inactive)
O=C(NC1CCc2ccccc21)c1cc(COc2ccc(F)cc2F)on1 (stereo unspecified)	> 42 µM (inactive)
COc1cc(S(=O)(=O)N2CCN(c3ccccc3)CC2)ccc1F	> 42 µM (inactive)
Cc1ccc2nc(NC(=O)C3CCN(S(=O)(=O)c4cccnc4)CC3)sc2c1	> 42 µM (inactive)
CCCNCC(O)COc1ccccc1C(=O)CCc1ccccc1 (stereo unspecified)	> 42 µM (inactive)

Compound	AC50
COc1cc2nc(CSc3ncn[nH]3)[nH]c(=O)c2cc1OC	> 42 µM (inactive)
CCN(C(=O)Nc1ccccc1OC)c1c(N)n(Cc2ccccc2)c(=O)[nH]c1=O	> 42 µM (inactive)
COc1ccc(C2C(C(C)=O)=C(O)C(=O)N2CCO)c(OC)c1 (stereo unspecified)	> 42 µM (inactive)
COc1cccc(-n2c(SCC(=O)NC3CCCCC3)nc3n[nH]c(C)c3c2=N)c1	> 42 µM (inactive)
Cc1ccc(C(=O)Nc2ccc3c(c2)OCCO3)c(Cl)c1	> 42 µM (inactive)
COc1cccc(/C=C2\SC(N3CCC(C)CC3)=NC2=O)c1OC	> 42 µM (inactive)
O=C(CSc1ncnc2nc[nH]c12)Nc1ccccc1C(F)(F)F	> 42 µM (inactive)
C/C(CC(=O)Nc1cccc(Cl)c1Cl)=N\NC(=O)c1ccccc1C	> 42 µM (inactive)
CCC(C)[C@H](NC(=O)OC(C)(C)C)C(=O)NCC1CCC(C(=O)N[C@@H](Cc2ccccc2)C(=O)O)CC1 (stereo partly specified)	> 42 µM (inactive)
COc1cc(CN2CCNC(=O)C2CC(=O)NCCc2ncccc2C)cc(OC)c1 (stereo unspecified)	> 42 µM (inactive)
CC(C)(C)C1c2[nH]c3ccccc3c2CCN1Cc1cccc(OCCO)c1 (stereo unspecified)	> 42 µM (inactive)
O=C(NCCNc1ccc(Cl)cc1[N+](=O)[O-])c1ccccc1F	> 42 µM (inactive)
COc1ccc(/C=N/NC(=O)c2nnn(-c3nonc3N)c2-c2cccs2)cc1OC	> 42 µM (inactive)
O=C(c1ccc(-c2ccccc2)cc1)C1CCCN(Cc2ccncc2)C1 (stereo unspecified)	> 42 µM (inactive)
COc1ccc(-c2csc(NC(=O)C3CSC4(C)CCC(=O)N34)n2)cc1 (stereo unspecified)	> 42 µM (inactive)
CCC(=O)c1c[nH]c(C(=O)NCCCn2ccnc2)c1	> 42 µM (inactive)
O=C(N/C(=C/c1ccc2c(c1)OCO2)C(=O)N1CCOCC1)c1cccs1	> 42 µM (inactive)
Cc1ccc(C(C(=O)NCC2CCCO2)N(Cc2ccccc2F)C(=O)Cn2nnc(-c3cccs3)n2)cc1 (stereo unspecified)	> 42 µM (inactive)
Cn1c(SCC(=O)Nc2ccc(N3CCOCC3)c(Cl)c2)nnc1-c1ccccc1	> 42 µM (inactive)
COc1cc(OC)c(C(=O)N2CCN(c3ccccn3)CC2)cc1OC	> 42 µM (inactive)
CCOc1ccc(C)cc1S(=O)(=O)n1nc(C)cc1C	> 42 µM (inactive)
CC1(C)CC(=O)C2=C(C1)OC(N)=C(C#N)C21C(=O)N(CN2CCOCC2)c2ccccc21 (stereo unspecified)	> 42 µM (inactive)
c1ccc(OCCCc2nc(-c3cccnc3)no2)cc1	> 42 µM (inactive)
O=C(COC(=O)c1ccccc1SCC(=O)N1CCCC1)NC1CCCCC1	> 42 µM (inactive)

Compound	AC50
CC1CC(C)(C)N(C(=O)CN2C(=O)CCC2=O)c2ccccc21 (stereo unspecified)	> 42 µM (inactive)
COc1ccc(CN2CCCCCC2)cc1	> 42 µM (inactive)
Cc1ccc(Sc2cnccc2C#N)cc1	> 42 µM (inactive)
CCOC(=O)N1CCC(NS(=O)(=O)c2ccc(C)c(Cl)c2)CC1	> 42 µM (inactive)
O=C(O)c1ccc(N=C2NC(=O)C(CO)(CO)S2)cc1	> 42 µM (inactive)
Cc1cc(C(F)F)n2ncc(C(=O)NCCc3ccc(Cl)cc3)c2n1	> 42 µM (inactive)
COc1ccccc1CNC(=O)CN(c1ccc(C)cc1)S(=O)(=O)c1c(C)n[nH]c1C	> 42 µM (inactive)
O=C(COC(=O)CSc1ccc([N+](=O)[O-])cc1)NC1CCCCCCC1	> 42 µM (inactive)
S=C(Nc1ccccc1Cl)N1CCOCC1	> 42 µM (inactive)
CC(=O)C1(c2ccccc2)CCNCC1	> 21 µM (inactive)
O=C(NCc1ccccn1)C1CC(c2ccc(Cl)c(Cl)c2)=NO1 (stereo unspecified)	> 42 µM (inactive)
CC1(C)C(C=C(Cl)Cl)C1C(=O)OCc1cccc(Oc2ccccc2)c1 (stereo unspecified)	> 42 µM (inactive)
Cc1nc2ccc(NC(=O)c3ccc(S(=O)(=O)N4CCOCC4)cc3)cc2s1	> 42 µM (inactive)
O=C(CN1C(=O)NC2(CCCC2)C1=O)Nc1nc2ccccc2[nH]1	> 42 µM (inactive)
O=C1C2CC=C(Cl)CC2C(=O)N1c1ncn[nH]1 (stereo unspecified)	> 42 µM (inactive)
Cc1ccc(NC(=S)N2CCN(Cc3ccc4c(c3)OCO4)CC2)c(C)c1	> 42 µM (inactive)
c1ccc(C(c2ccccc2)N2CCN(C(c3ccccn3)c3nnnn3C3CCCC3)CC2)cc1 (stereo unspecified)	> 42 µM (inactive)
COc1ccc(NC(=O)C2CCCN(C(=O)Nc3cccc(OC)c3)C2)cc1 (stereo unspecified)	> 42 µM (inactive)
CN1C(=O)C(=Cc2ccc(N3CCCCC3)o2)C(=O)N(C)C1=S	> 42 µM (inactive)
C=C(Cl)COC(=O)C1C2C=CC(C2)C1C(=O)O (stereo unspecified)	> 42 µM (inactive)
CC(C)(C)Cc1nc(-c2ccccn2)no1	> 42 µM (inactive)
O=C(Nc1ccc([N+](=O)[O-])cn1)c1ccc2c(c1)OCO2	> 42 µM (inactive)
CCOC(=O)c1oc2cc(OC(C)=O)ccc2c(=O)c1-c1ccc(OC)c(OC)c1	> 42 µM (inactive)
